In ChEMBL document CHEMBL1201862, “PubChem BioAssay data set” (2004):
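Interpolation was linear, between the two tested concentrations surrounding the appropriate level; five concentrations were tested over 48 hours in 96-well plates. GI50 marks 50% less growth.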 Activity calls are given as the source filed them. Rule as the data show it: active = GI50 up to about 1.1 µM and inactive = higher.

Columns and labels:
Assay in all cases: inhibition of tumour cell growth, NCI panel, 48 h
NCI-H226 = test system: NCI-H226
LOX IMVI = test system: LOX IMVI
RXF 393 = test system: RXF 393
PC-3 = test system: PC-3
SF-268 = test system: SF-268
DU-145 = test system: DU-145
U-251 = test system: U-251
TK-10 = test system: TK-10
K562 = test system: K562
T47D = test system: T47D
SNB-75 = test system: SNB-75
RPMI-8226 = test system: RPMI-8226
MDA-MB-231 = test system: MDA-MB-231
NCI-H460 = test system: NCI-H460
IGROV-1 = test system: IGROV-1
CCRF-CEM = test system: CCRF-CEM
HCT-15 = test system: HCT-15
SW-620 = test system: SW-620
A549 = test system: A549
M14 = test system: M14
HCT-116 = test system: HCT-116
HT-29 = test system: HT-29
A498 = test system: A498
OVCAR-4 = test system: OVCAR-4
SK-OV-3 = test system: SK-OV-3
UACC-257 = test system: UACC-257
CAKI-1 = test system: CAKI-1
MOLT-4 = test system: MOLT-4
EKVX = test system: EKVX
Malme-3M = test system: Malme-3M
SK-MEL-5 = test system: SK-MEL-5
SNB-19 = test system: SNB-19
MDA-N = test system: MDA-N
786-0 = test system: 786-0
COLO 205 = test system: COLO 205
BT-549 = test system: BT-549
MDA-MB-435 = test system: MDA-MB-435
OVCAR-5 = test system: OVCAR-5
Hs-578T = test system: Hs-578T
OVCAR-8 = test system: OVCAR-8
HCC 2998 = test system: HCC 2998
SF-295 = test system: SF-295
MCF7 = test system: MCF7
OVCAR-3 = test system: OVCAR-3
UO-31 = test system: UO-31
ACHN = test system: ACHN
UACC-62 = test system: UACC-62
SN12C = test system: SN12C
SK-MEL-28 = test system: SK-MEL-28
NCI-H23 = test system: NCI-H23
SK-MEL-2 = test system: SK-MEL-2
NCI-H522 = test system: NCI-H522
HL-60 = test system: HL-60
HOP-62 = test system: HOP-62
KM12 = test system: KM12
SF-539 = test system: SF-539
NCI/ADR-RES = test system: NCI/ADR-RES

**Q.** Which GI50 (NCI-H226) does the source give for `Cc1cc2c(cc1Cl)SC(NNC(=O)c1ccco1)=NS2(=O)=O` here?
**A.** > 10 µM (inactive)

**Q.** What about the GI50 (LOX IMVI) of the same molecule?
**A.** > 10 µM (inactive)

**Q.** And the GI50 (RXF 393)?
**A.** > 10 µM (inactive)

**Q.** What about the GI50 (PC-3) of the same molecule?
**A.** > 10 µM (inactive)

**Q.** And the GI50 (SF-268)?
**A.** > 10 µM (inactive)

**Q.** What about the GI50 (DU-145) of the same molecule?
**A.** > 10 µM (inactive)

**Q.** And the GI50 (U-251)?
**A.** > 10 µM (inactive)

**Q.** And the GI50 (TK-10)?
**A.** > 10 µM (inactive)

**Q.** What about the GI50 (K562) of the same molecule?
**A.** > 10 µM (inactive)

**Q.** And the GI50 (T47D)?
**A.** > 10 µM (inactive)

**Q.** And the GI50 (SNB-75)?
**A.** > 10 µM (inactive)

**Q.** What about the GI50 (RPMI-8226) of the same molecule?
**A.** > 10 µM (inactive)

**Q.** And the GI50 (MDA-MB-231)?
**A.** > 10 µM (inactive)

**Q.** And the GI50 (NCI-H460)?
**A.** > 10 µM (inactive)

**Q.** And the GI50 (IGROV-1)?
**A.** > 10 µM (inactive)

**Q.** What about the GI50 (CCRF-CEM) of the same molecule?
**A.** > 10 µM (inactive)

**Q.** What about the GI50 (HCT-15) of the same molecule?
**A.** > 10 µM

**Q.** What about the GI50 (SW-620) of the same molecule?
**A.** > 10 µM (inactive)

**Q.** What about the GI50 (A549) of the same molecule?
**A.** > 10 µM (inactive)

**Q.** And the GI50 (M14)?
**A.** > 10 µM (inactive)

**Q.** And the GI50 (HCT-116)?
**A.** > 10 µM (inactive)

**Q.** And the GI50 (HT-29)?
**A.** > 10 µM (inactive)

**Q.** And the GI50 (A498)?
**A.** > 10 µM (inactive)

**Q.** What about the GI50 (OVCAR-4) of the same molecule?
**A.** > 10 µM (inactive)

**Q.** And the GI50 (SK-OV-3)?
**A.** > 10 µM (inactive)

**Q.** And the GI50 (UACC-257)?
**A.** > 10 µM (inactive)

**Q.** What about the GI50 (CAKI-1) of the same molecule?
**A.** > 10 µM (inactive)

**Q.** What about the GI50 (MOLT-4) of the same molecule?
**A.** > 10 µM (inactive)

**Q.** What about the GI50 (EKVX) of the same molecule?
**A.** > 10 µM (inactive)

**Q.** And the GI50 (Malme-3M)?
**A.** > 10 µM (inactive)

**Q.** What about the GI50 (SK-MEL-5) of the same molecule?
**A.** > 10 µM (inactive)

**Q.** What about the GI50 (SNB-19) of the same molecule?
**A.** > 10 µM (inactive)

**Q.** And the GI50 (MDA-N)?
**A.** > 10 µM (inactive)

**Q.** And the GI50 (786-0)?
**A.** > 10 µM (inactive)

**Q.** What about the GI50 (COLO 205) of the same molecule?
**A.** > 10 µM (inactive)

**Q.** What about the GI50 (BT-549) of the same molecule?
**A.** > 10 µM (inactive)

**Q.** And the GI50 (MDA-MB-435)?
**A.** > 10 µM (inactive)

**Q.** What about the GI50 (OVCAR-5) of the same molecule?
**A.** > 10 µM (inactive)

**Q.** What about the GI50 (Hs-578T) of the same molecule?
**A.** > 10 µM (inactive)

**Q.** And the GI50 (OVCAR-8)?
**A.** > 10 µM (inactive)

**Q.** And the GI50 (HCC 2998)?
**A.** > 10 µM (inactive)

**Q.** What about the GI50 (SF-295) of the same molecule?
**A.** > 10 µM (inactive)

**Q.** And the GI50 (MCF7)?
**A.** > 10 µM (inactive)

**Q.** What about the GI50 (OVCAR-3) of the same molecule?
**A.** > 10 µM (inactive)

**Q.** What about the GI50 (UO-31) of the same molecule?
**A.** > 10 µM (inactive)

**Q.** And the GI50 (ACHN)?
**A.** > 10 µM (inactive)

**Q.** And the GI50 (UACC-62)?
**A.** > 10 µM (inactive)

**Q.** And the GI50 (SN12C)?
**A.** > 10 µM (inactive)

**Q.** What about the GI50 (SK-MEL-28) of the same molecule?
**A.** > 10 µM (inactive)

**Q.** What about the GI50 (NCI-H23) of the same molecule?
**A.** > 10 µM (inactive)

**Q.** And the GI50 (SK-MEL-2)?
**A.** > 10 µM (inactive)

**Q.** What about the GI50 (NCI-H522) of the same molecule?
**A.** > 10 µM (inactive)

**Q.** And the GI50 (HL-60)?
**A.** > 10 µM (inactive)

**Q.** What about the GI50 (HOP-62) of the same molecule?
**A.** > 10 µM (inactive)

**Q.** What about the GI50 (KM12) of the same molecule?
**A.** > 10 µM (inactive)

**Q.** What about the GI50 (SF-539) of the same molecule?
**A.** > 10 µM (inactive)

**Q.** What about the GI50 (NCI/ADR-RES) of the same molecule?
**A.** > 10 µM (inactive)

**Q.** For `O=C(NN=C1CCCCC1)NN=C1CCCCC1`, which GI50 (LOX IMVI) is on record?
**A.** > 100 µM (inactive)

**Q.** What about the GI50 (RXF 393) of the same molecule?
**A.** > 100 µM (inactive)

**Q.** And the GI50 (PC-3)?
**A.** > 100 µM (inactive)

**Q.** And the GI50 (DU-145)?
**A.** > 100 µM (inactive)

**Q.** And the GI50 (U-251)?
**A.** > 100 µM (inactive)

**Q.** And the GI50 (TK-10)?
**A.** > 100 µM (inactive)

**Q.** What about the GI50 (K562) of the same molecule?
**A.** > 100 µM (inactive)

**Q.** And the GI50 (T47D)?
**A.** > 100 µM (inactive)

**Q.** And the GI50 (SNB-75)?
**A.** > 100 µM (inactive)

**Q.** What about the GI50 (MDA-MB-231) of the same molecule?
**A.** > 100 µM (inactive)

**Q.** What about the GI50 (NCI-H460) of the same molecule?
**A.** > 100 µM (inactive)

**Q.** And the GI50 (IGROV-1)?
**A.** > 100 µM (inactive)

**Q.** What about the GI50 (CCRF-CEM) of the same molecule?
**A.** > 100 µM (inactive)

**Q.** What about the GI50 (HCT-15) of the same molecule?
**A.** > 100 µM

**Q.** And the GI50 (SW-620)?
**A.** > 100 µM (inactive)

**Q.** What about the GI50 (M14) of the same molecule?
**A.** > 100 µM (inactive)

**Q.** And the GI50 (HCT-116)?
**A.** > 100 µM (inactive)

**Q.** And the GI50 (HT-29)?
**A.** > 100 µM (inactive)

**Q.** And the GI50 (OVCAR-4)?
**A.** > 100 µM (inactive)

**Q.** And the GI50 (SK-OV-3)?
**A.** > 100 µM (inactive)

**Q.** And the GI50 (UACC-257)?
**A.** > 100 µM (inactive)

**Q.** And the GI50 (CAKI-1)?
**A.** > 100 µM (inactive)

**Q.** And the GI50 (MOLT-4)?
**A.** > 100 µM (inactive)

**Q.** And the GI50 (Malme-3M)?
**A.** > 100 µM (inactive)

**Q.** And the GI50 (SK-MEL-5)?
**A.** > 100 µM (inactive)

**Q.** And the GI50 (SNB-19)?
**A.** > 100 µM (inactive)

**Q.** And the GI50 (MDA-N)?
**A.** > 100 µM (inactive)

**Q.** And the GI50 (COLO 205)?
**A.** > 100 µM (inactive)

**Q.** What about the GI50 (BT-549) of the same molecule?
**A.** > 100 µM (inactive)

**Q.** What about the GI50 (MDA-MB-435) of the same molecule?
**A.** > 100 µM (inactive)

**Q.** What about the GI50 (OVCAR-5) of the same molecule?
**A.** > 100 µM (inactive)

**Q.** And the GI50 (Hs-578T)?
**A.** > 100 µM (inactive)

**Q.** What about the GI50 (OVCAR-8) of the same molecule?
**A.** > 100 µM (inactive)

**Q.** And the GI50 (SF-295)?
**A.** > 100 µM (inactive)

**Q.** What about the GI50 (MCF7) of the same molecule?
**A.** > 100 µM (inactive)

**Q.** What about the GI50 (OVCAR-3) of the same molecule?
**A.** > 100 µM (inactive)

**Q.** And the GI50 (UO-31)?
**A.** > 100 µM (inactive)

**Q.** And the GI50 (UACC-62)?
**A.** > 100 µM (inactive)

**Q.** And the GI50 (SN12C)?
**A.** > 100 µM (inactive)

**Q.** What about the GI50 (SK-MEL-28) of the same molecule?
**A.** > 100 µM (inactive)

**Q.** And the GI50 (NCI-H23)?
**A.** > 100 µM (inactive)

**Q.** And the GI50 (HOP-62)?
**A.** > 100 µM (inactive)

**Q.** What about the GI50 (KM12) of the same molecule?
**A.** > 100 µM (inactive)

**Q.** And the GI50 (NCI/ADR-RES)?
**A.** > 100 µM (inactive)
